This test relates to NF-kB (p65) / IkB. The test can be described thus: Nuclear p65 / cytosolic IkB western blot in LPS-treated RAW264.7 macrophages. The class given is cell-based, mouse. Particulars: 20 μg/ml, 100 ng/ml LPS for 30 minutes. Here is the method: Western blots. Total cellular extract, cytosolic fractions (for IkB) and nuclear fraction (for p65 antibody) were prepared according to Muller et al., Immunobiology, 187, 233-256, 1993 and separated on sodium dodecyl sulfatepolyacrylamide minigels (8% for iNOS or COX-2, and 10% for IkB or p65) and transferred to immobilon polyvinylidene difluoride membranes (Millipore, Bedford, Mass.). The membrane was incubated overnight at 4° C. with 1% bovine serum albumin and then incubated with anti-iNos, COX-2, α-Tubulin monoclonal antibodies (Transduction Laboratories, Lexington, Ky.), anti-IkB or anti-p65 polyclonal antibodies (Santa Cruz Biochemicals, Santa Cruz, Calif.). iNOS, IkB, p65, Cox-2, α-Tubulin were detected by NBT and BCIP staining (Sigma Chemical Co., St. Louis, Mo.).
NF-kB is a transcription factor that is activated in response to stimulation by LPS, and activation of NF-kB is an essential factor in inducing iNOS gene expression in macrophages (Kim, Y. M., Biochem. Biophys. Res. Commun. 236, 655-660, 1997). To assess the effect of these compounds (20 μg/ml) on early stage of iNOS gene expression, the activation of NF-kB in RAW264.7 macrophages was examined using the electrophoretic mobility shift assay (EMSA) (FIGS. 6i and 6ii).
(In general: A western blot detects proteins with antibodies after separation by electrophoresis.)

For the compound `COc1c(O)cc2oc(-c3ccccc3)cc(=O)c2c1O` [oroxylin A, 5,7-dihydroxy-6-methoxy flavone], the “LPS-induced increase of nuclear p65 and decrease of cytosolic IkB” value is “significantly inhibited”.

Source of the values: patent US6806257B1, “Flavones as inducible nitric oxide synthase inhibitors, cyclooxygenase-2 inhibitors and potassium channel activators” (priority 1999, dated 2004).
